Several values for one entry are separate records, joined by “and”; a condition that tells them apart may be missing. Identical values can stand only once. Numbers after ± are expanded uncertainties.
Experiment: wn = mass fraction of the nth substance listed
Settings: Liquid, Pulse-echo method, w2 = 0.49

CC(F)(F)F [1,1,1-trifluoroethane] + FC(F)C(F)(F)F
speed of sound
Settings | 265.62 K | 273.14 K | 280.7 K | 288.18 K
940 kPa | – | 500.1 ± 1.3 m/s | – | –
1010 kPa | – | 500.9 ± 1.3 m/s | – | –
1130 kPa | – | 502.3 ± 1.3 m/s | – | 427.1 ± 1.3 m/s
1140 kPa | – | – | 465.9 ± 1.3 m/s | –
1160 kPa | – | – | 466.2 ± 1.3 m/s | –
1190 kPa | – | – | – | 428.3 ± 1.3 m/s
1210 kPa | – | – | 466.5 ± 1.3 m/s | –
1260 kPa | – | 503.8 ± 1.3 m/s | 467.5 ± 1.3 m/s | 429.1 ± 1.3 m/s
1380 kPa | – | 505.3 ± 1.3 m/s | 469.1 ± 1.3 m/s | –
1500 kPa | – | 506.6 ± 1.3 m/s | 471 ± 1.3 m/s | 432.9 ± 1.3 m/s
1630 kPa | – | 508.1 ± 1.3 m/s | 472.4 ± 1.3 m/s | 434.9 ± 1.3 m/s
1750 kPa | – | 509.5 ± 1.3 m/s | 473.9 ± 1.3 m/s | 436.7 ± 1.3 m/s and 436.6 ± 1.3 m/s
2010 kPa | – | 512.5 ± 1.3 m/s | 477.2 ± 1.3 m/s | –
2250 kPa | – | 515.3 ± 1.3 m/s | 480.2 ± 1.3 m/s | –
2510 kPa | – | 518.1 ± 1.3 m/s | 483.5 ± 1.3 m/s | –
2750 kPa | – | 520.9 ± 1.3 m/s | 486.6 ± 1.3 m/s | –
3010 kPa | – | 523.7 ± 1.3 m/s | 489.8 ± 1.3 m/s | –
3500 kPa | – | 529.2 ± 1.3 m/s | 495.6 ± 1.3 m/s | –
4000 kPa | – | 534.4 ± 1.3 m/s | 501.4 ± 1.3 m/s | –
4500 kPa | – | 539.5 ± 1.3 m/s | 507.2 ± 1.3 m/s | –
5000 kPa | – | 544.6 ± 1.3 m/s | 512.8 ± 1.3 m/s | –
6010 kPa | – | 554.2 ± 1.3 m/s | 523.3 ± 1.3 m/s | –
7010 kPa | – | 563.6 ± 1.3 m/s | 533.5 ± 1.3 m/s | –
8000 kPa | – | 572.9 ± 1.3 m/s | 543.1 ± 1.3 m/s | –
9000 kPa | – | 581.6 ± 1.3 m/s | 552.7 ± 1.3 m/s | –
10000 kPa | – | 590.2 ± 1.3 m/s | 561.9 ± 1.3 m/s | –
12000 kPa | – | 606.5 ± 1.3 m/s | 579.4 ± 1.3 m/s | –
14000 kPa | 649.8 ± 1.3 m/s | 622 ± 1.3 m/s | 595.5 ± 1.3 m/s | –
16010 kPa | 663.9 ± 1.3 m/s | 636.6 ± 1.3 m/s | 611 ± 1.3 m/s | –
18000 kPa | 677.1 ± 1.3 m/s | 650.5 ± 1.3 m/s | 625.4 ± 1.3 m/s | –
20000 kPa | 690.1 ± 1.3 m/s | 663.8 ± 1.3 m/s | 639.5 ± 1.3 m/s | –
23000 kPa | 708.2 ± 1.3 m/s | 683.2 ± 1.3 m/s | 659.6 ± 1.3 m/s | –
26000 kPa | 725.7 ± 1.3 m/s | 701.6 ± 1.3 m/s | 678.2 ± 1.3 m/s | –
29010 kPa | 742.6 ± 1.3 m/s | 718.9 ± 1.3 m/s | 696.3 ± 1.3 m/s | –
32000 kPa | 758.5 ± 1.3 m/s | 735.3 ± 1.3 m/s | 713.7 ± 1.3 m/s | –
35000 kPa | 773.9 ± 1.3 m/s | 751.1 ± 1.3 m/s | 729.9 ± 1.3 m/s | –
40000 kPa | 798.3 ± 1.3 m/s | 775.8 ± 1.3 m/s | 755.3 ± 1.3 m/s | –
45000 kPa | 821.3 ± 1.3 m/s | 799.7 ± 1.3 m/s | 779.7 ± 1.3 m/s | –
50000 kPa | 843.1 ± 1.3 m/s | 822 ± 1.3 m/s | 802.7 ± 1.3 m/s | –
55000 kPa | 863.8 ± 1.3 m/s | 843.4 ± 1.3 m/s | 824.2 ± 1.3 m/s | –
60000 kPa | 883.7 ± 1.3 m/s | 863.4 ± 1.3 m/s | 845.1 ± 1.3 m/s | –
65000 kPa | 902.8 ± 1.3 m/s | 882.8 ± 1.3 m/s | 864.9 ± 1.3 m/s | –

Source: the NIST ThermoML archive (doi:10.1021/je060291c)
